Measurements reported in publication PMC10482691, “LTP induction by structural rather than enzymatic functions of CaMKII” (Nature, 2023).
“And” between values parts separate entries of the source, which are not always exact repeats. Equal entries are not always repeated.

Tests used:
KDR(h) = KDR(h) (Homo sapiens, UniProt P35968); assay: Kinase selectivity panel (residual activity at 1 μM); assay type: biochemical; details: inhibitor at 1 μM; read-out: residual kinase activity in % of maximal activity
[1] = test system: CA1 LTP in CaMKIIα KO slices (mock); assay: LTP field recordings in slices of CaMKIIα KO mice injected with AAV-mScarlet (mock); assay type: cell-based, mouse; details: for fEPSP slope (normalized to baseline): individual slices, sheet 5b
Protocol: Stereotactic injections were performed on P24 CaMKIIα KO mice. Animals were anesthetized with an intraperitoneal injection of 2,2,2-Tribromoethanol (250 mg kg^−1) and then head fixed to a stereotactic frame (David Kopf Instruments). AAVs (0.2–0.5 µl) were injected into intermediate CA1 at a rate of […] using a syringe pump (World Precision Instruments). Coordinates (in millimetres) were anterior–posterior: −3.17; mediolateral: ±3.45 (relative to Bregma); and dorsoventral: −2.5 (relative to pia). To confirm specificity of the injection site following LTP recordings, slices were fixed in 4% paraformaldehyde; then, they were coverslipped and imaged on an Olympus slide scanning microscope.
WT and mutant mouse hippocampal slices were prepared using P56–P70 mice. Isoflurane-anesthetized mice were rapidly decapitated, and the brain was dissected in an ice-cold high-sucrose solution containing 220 mM sucrose, 12 mM MgSO4, 10 mM glucose, 0.2 mM CaCl2, 0.5 mM KCl, 0.65 mM NaH2PO4, 13 mM NaHCO3 and 1.8 mM ascorbate. Transverse hippocampal slices (400 μm) were made using a tissue chopper (McIlwain) and transferred into 32 °C ACSF containing 124 mM NaCl, 3.5 mM KCl, 1.3 mM NaH2PO4, 26 mM NaHCO3, 10 mM glucose, 2 mM CaCl2, 1 mM MgSO4 and 1.8 mM ascorbate. All slices were recovered in 95% O2/5% CO2 for at least 1.5 h before experimentation.
For electrophysiological slice recording experiments, a glass micropipette (typical resistance of 0.4–0.8 megaohm when filled with ACSF) was used to record fEPSPs from the CA1 dendritic layer in response to stimulation of the Schaffer collaterals using a tungsten bipolar electrode. Slices were continually perfused with 30.5 °C ± 0.5 °C ACSF at a rate of 2.5 ± 0.5 ml min^−1 during recordings. Stimuli were delivered every 20 s, and three responses (1 min) were averaged for analysis. Data were analysed using WinLTP software with slope calculated as the initial rise from 10 to 60% of the response peak. Input–output curves were generated by increasing the stimulus intensity at a constant interval until a maximum response or population spike was noted to determine stimulation that elicits 50% of maximum slope. […] A stable baseline was acquired for a minimum of 20 min at 50% maximum slope before high-frequency stimulation (HFS; 2 × 100 Hz, 10 s interval) was applied. Responses were recorded for 40 or 60 min after HFS. Change in slope was calculated as a ratio of the average slope of the 20 min baseline (before HFS). Bar graphs of the percentage of fEPSP slope were calculated by averaging the last 10 min time points post-HFS and normalized to baseline.

Chain of KDR(h) (P35968 20-1356): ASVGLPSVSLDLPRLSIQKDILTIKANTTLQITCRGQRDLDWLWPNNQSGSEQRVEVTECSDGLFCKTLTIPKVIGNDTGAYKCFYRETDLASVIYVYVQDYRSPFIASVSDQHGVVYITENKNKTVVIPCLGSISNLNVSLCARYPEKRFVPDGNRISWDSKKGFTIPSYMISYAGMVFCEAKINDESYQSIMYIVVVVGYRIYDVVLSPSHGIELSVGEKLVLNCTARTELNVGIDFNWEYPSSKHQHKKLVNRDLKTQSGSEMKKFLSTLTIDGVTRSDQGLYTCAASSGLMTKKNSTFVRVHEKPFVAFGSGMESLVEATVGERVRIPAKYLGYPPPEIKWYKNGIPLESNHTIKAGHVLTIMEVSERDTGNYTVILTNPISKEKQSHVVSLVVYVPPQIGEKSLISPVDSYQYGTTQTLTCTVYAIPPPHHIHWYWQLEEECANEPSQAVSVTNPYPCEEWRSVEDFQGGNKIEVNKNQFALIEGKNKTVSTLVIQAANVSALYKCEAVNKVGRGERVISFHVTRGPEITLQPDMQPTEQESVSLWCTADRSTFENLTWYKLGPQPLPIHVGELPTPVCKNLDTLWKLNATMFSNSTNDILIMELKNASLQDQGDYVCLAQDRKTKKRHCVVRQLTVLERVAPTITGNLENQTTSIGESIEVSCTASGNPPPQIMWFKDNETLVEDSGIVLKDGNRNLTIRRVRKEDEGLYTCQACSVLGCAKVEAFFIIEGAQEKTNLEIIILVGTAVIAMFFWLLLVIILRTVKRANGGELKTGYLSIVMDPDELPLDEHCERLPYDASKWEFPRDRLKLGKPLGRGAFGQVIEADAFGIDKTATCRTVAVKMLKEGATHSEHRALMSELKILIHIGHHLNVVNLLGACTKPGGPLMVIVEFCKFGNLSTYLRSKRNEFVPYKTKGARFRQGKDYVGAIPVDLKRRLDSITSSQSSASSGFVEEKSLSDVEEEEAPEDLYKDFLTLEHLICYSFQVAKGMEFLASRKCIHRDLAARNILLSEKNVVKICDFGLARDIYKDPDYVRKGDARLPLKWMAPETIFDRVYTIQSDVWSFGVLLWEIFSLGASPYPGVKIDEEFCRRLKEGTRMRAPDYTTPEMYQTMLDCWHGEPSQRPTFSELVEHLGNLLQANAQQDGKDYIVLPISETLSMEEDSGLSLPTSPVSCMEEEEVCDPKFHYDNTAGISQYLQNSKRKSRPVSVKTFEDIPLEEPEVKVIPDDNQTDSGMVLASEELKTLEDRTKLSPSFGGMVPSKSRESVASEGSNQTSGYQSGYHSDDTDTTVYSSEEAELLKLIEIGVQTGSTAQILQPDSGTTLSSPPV

| SMILES | remaining activity at 1 µM (KDR(h)) [%] | synaptic response 60 min following LTP induction (fEPSP slope normalized to baseline) ([1]; AAV-mScarlet (mock), 10 μM NM-PP1) | effect on residual LTP in control slices ([1]; NM-PP1) | fEPSP slope (normalized to baseline) ([1]; Time (min) 0) | fEPSP slope (normalized to baseline) ([1]; Time (min) 2.33333) | fEPSP slope (normalized to baseline) ([1]; Time (min) 4.33333) | fEPSP slope (normalized to baseline) ([1]; Time (min) 6.33333) | fEPSP slope (normalized to baseline) ([1]; Time (min) 8.33333) | fEPSP slope (normalized to baseline) ([1]; Time (min) 10.3333) | fEPSP slope (normalized to baseline) ([1]; Time (min) 12.3333) | fEPSP slope (normalized to baseline) ([1]; Time (min) 14.3333) | fEPSP slope (normalized to baseline) ([1]; Time (min) 16.3333) | fEPSP slope (normalized to baseline) ([1]; Time (min) 18.3333) | fEPSP slope (normalized to baseline) ([1]; Time (min) 20.3333) | fEPSP slope (normalized to baseline) ([1]; Time (min) 22.3333) | fEPSP slope (normalized to baseline) ([1]; Time (min) 24.3333) | fEPSP slope (normalized to baseline) ([1]; Time (min) 26.3333) | fEPSP slope (normalized to baseline) ([1]; Time (min) -2) | fEPSP slope (normalized to baseline) ([1]; Time (min) -4) | fEPSP slope (normalized to baseline) ([1]; Time (min) -6) |
| --- | --- | --- | --- | --- | --- | --- | --- | --- | --- | --- | --- | --- | --- | --- | --- | --- | --- | --- | --- | --- |
| NCCNc1cccc(-c2ccnc3[nH]c4ccccc4c23)c1 [AS283] | 15 | – | – | – | – | – | – | – | – | – | – | – | – | – | – | – | – | – | – | – |
| CC(C)(C)n1nc(Cc2cccc3ccccc23)c2c(N)ncnc21 [NM-PP1] | – | 102.757% and 115.997% and 130.031% and 114.245% and 91.515% and 129.007% | no effect | 101.067 and 113.338 and 103.234 and 95.8969 and 93.1952 and 132.987 | 249.911 and 143.318 and 169.121 and 175.176 and 145.841 and 156.755 | 204.384 and 151.727 and 165.598 and 165.31 and 135.76 and 108.68 | 189.169 and 150.265 and 135.884 and 160.117 and 120.975 and 129.276 | 181.94 and 147.249 and 128.602 and 144.365 and 120.078 and 132.395 | 172.351 and 139.799 and 136.941 and 133.459 and 110.893 and 130.889 | 161.674 and 137.88 and 134.122 and 129.997 and 100.812 and 137.611 | 174.774 and 134.406 and 129.19 and 125.67 and 98.5718 and 121.048 | 159.559 and 133.63 and 131.891 and 126.189 and 89.1627 and 135.622 | 153.964 and 134.681 and 128.015 and 124.631 and 95.4355 and 108.465 | 149.095 and 132.944 and 120.851 and 126.189 and 102.828 and 98.3552 | 149.671 and 128.922 and 119.442 and 125.843 and 91.627 and 123.092 | 144.438 and 125.952 and 116.623 and 124.631 and 90.9549 and 132.503 | 142.473 and 123.484 and 117.21 and 125.843 | 96.4978 and 115.989 and 102.999 and 98.6665 and 100.14 and 126.48 | 101.912 and 117.543 and 106.993 and 100.051 and 103.5 and 95.9353 | 102.969 and 117.634 and 102.06 and 101.09 and 99.2439 and 110.347 |
